Assay results as given in patent publication US20240174598A1, “COMPOUNDS FOR THE TREATMENT OF DISORDERS AND SALTS AND POLYMORPHS THEREOF” (OccuRx Pty Ltd, priority 2021, published 2024).
Counter-ions that a name gives are not always drawn.

Experiments:
[1] = Dynamic vapor sorption (DVS) analysis; assay type: physicochemical; conditions: for stability to humidity: over a wide range of humidity
Method: Approximately, 10-20 mg of sample was placed into a mesh vapor sorption balance pan and loaded into a DVS Intrinsic dynamic vapor sorption balance by Surface Measurement Systems. The sample was subjected to a ramping profile from 40-90% relative humidity (RH) at 10% increments, maintaining the sample at each step until a stable weight had been achieved (dm/dt 0.004%, minimum step length 30 minutes, maximum step length 500 minutes) at 25° C. After completion of the sorption cycle, the sample was dried using the same procedure to 0% RH and then a second sorption cycle back to 40% RH. Two cycles were performed. The weight change during the sorption/desorption cycles were plotted, allowing for the hygroscopic nature of the sample to be determined. XRPD analysis was then carried out on any solid retained.

[2] = Intrinsic dissolution studies (disc, Wood's die); assay type: physicochemical
Method: Discs for the intrinsic dissolution evaluation were prepared by weighing approximately 175 mg of each batch and compressing with a small hydraulic press in a 13 mm Wood's die for 3 minutes at a force of approximately 3000 lbs. The surface of each disc was examined carefully to ensure that it was uniform, smooth and free from loose powder.
The dissolution experiments were conducted by attaching the Wood's die containing the disc, to the matching shafts on an Erweka DT6 dissolution apparatus. The discs were lowered into the media (500 mL at 37° C.) and immediately rotated at 100 rpm. Duplicate samples of the media (0.2 mL) were removed prior to immersion of the disc and then at 2, 5, 10, 15, 20, 25, 30, 60 and 90 minutes after the experiment was initiated. Sampling was discontinued if substantial dissolution was visible or if the disc disintegrated in the media.
At the end of each experiment, the discs were removed from the media and examined to ensure that the surface of the discs remained uniform and to qualitatively assess the extent of dissolution over the course of the experiment. Media samples were centrifuged (10000 rpm×3 min) and a small aliquot (50 μL) removed, 5-fold diluted with 50% aqueous acetonitrile prior to HPLC analysis.

SMILES | water uptake corresponding to the mass increase ([1]; at 90% RH) | mass increase by dynamic vapor sorption ([1]; at 90% Relative Humidity (RH)) [wt. %] | stability to humidity [1] | dissolution profile compared to the free acid of the compound of Formula (I) ([2]; FaSSIF media, 37° C. (FIG. 12)) | dissolution profile compared to the free acid of the compound of Formula (I) ([2]; PBS media, 37° C. (FIG. 13)) | hygroscopicity by dynamic vapor sorption/desorption analysis [1] | water uptake by dynamic vapor sorption ([1]; at 90% RH)
COc1cc(/C=C/C(=O)Nc2ccccc2C(=O)O)ccc1OC(F)F [Crystalline Salt A] | 1.3 equiv. of water | 4.2 | stable over a wide range of humidity | superior | superior | – | –
COc1cc(/C=C/C(=O)Nc2ccccc2C(=O)O)ccc1OC(F)F [Crystalline Salt B] | – | – | stable over a wide range of humidity | superior | equivalent, if not better | non-hygroscopic | negligible water uptake
